Reference: the supplement of paper PMC10307832

What was measured:
Test in all cases: relative viability (nuclei count vs DMSO), 5 days (fraction); higher = more cells survive
[1] = compound: Cc1ccc2nc(NCCN)c3ncc(C)n3c2c1 + CC(=O)Nc1cccc(-n2c(=O)n(C3CC3)c(=O)c3c(Nc4ccc(I)cc4F)n(C)c(=O)c(C)c32)c1 [Trametinib] (partner 0.02 µM)
Outline: (§1)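 For relative viability, nuclei counts in treated wells were divided by those in vehicle wells. Lung cancer cell lines had been pin-tool dosed in 1536-well plates the day after seeding and cultured for 5 days, then fixed and stained in one step (final 0.05% Triton X-100, 1% formaldehyde, 1 ug/ml Hoechst) and imaged at 4×. Doses were one drug alone or a fixed anchor-drug dose plus five library-drug doses (not always all listed) in √10 steps, and values are duplicate-plate medians.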

[2] = compound: Cc1ccc2nc(NCCN)c3ncc(C)n3c2c1 + C[C@]1(O)C[C@@H](c2nc(-c3ccc4ccc(-c5ccccc5)nc4c3)c3c(N)nccn32)C1 [Linsitinib] (partner 1 µM)
Outline: as §1

[3] = compound: Cc1ccc2nc(NCCN)c3ncc(C)n3c2c1 + CC(=O)c1c(C)c2cnc(Nc3ccc(N4CCNCC4)cn3)nc2n(C2CCCC2)c1=O [Palbociclib] (partner 0.5 µM)
Outline: as §1

[4] = compound: Cc1ccc2nc(NCCN)c3ncc(C)n3c2c1 + CC1(C)CCC(c2ccc(Cl)cc2)=C(CN2CCN(c3ccc(C(=O)NS(=O)(=O)c4ccc(N[C@H](CCN5CCOCC5)CSc5ccccc5)c(S(=O)(=O)C(F)(F)F)c4)cc3)CC2)C1 [Navitoclax] (partner 0.5 µM)
Outline: as §1

Cell Line | relative viability ([1]; first compound 0.04 µM) | relative viability ([1]; first compound 0.1265 µM) | relative viability ([1]; first compound 0.4 µM) | relative viability ([1]; first compound 1.265 µM) | relative viability ([1]; first compound 4 µM) | relative viability ([2]; first compound 0.04 µM) | relative viability ([2]; first compound 0.1265 µM) | relative viability ([2]; first compound 0.4 µM) | relative viability ([2]; first compound 1.265 µM) | relative viability ([2]; first compound 4 µM) | relative viability ([3]; first compound 0.04 µM) | relative viability ([3]; first compound 0.1265 µM) | relative viability ([3]; first compound 0.4 µM) | relative viability ([3]; first compound 1.265 µM) | relative viability ([3]; first compound 4 µM) | relative viability ([4]; first compound 0.04 µM) | relative viability ([4]; first compound 0.1265 µM) | relative viability ([4]; first compound 0.4 µM) | relative viability ([4]; first compound 1.265 µM) | relative viability ([4]; first compound 4 µM)
NCI-H2228 | 0.549 | 0.501 | 0.522 | 0.519 | 0.424 | 0.642 | 0.443 | 0.587 | 0.751 | 0.44 | 0.649 | 0.763 | 0.908 | 0.782 | 0.648 | 0.794 | 0.843 | 0.702 | 0.732 | 0.674
EKVX | 0.383 | 0.365 | 0.269 | 0.261 | 0.291 | 1.04 | 0.972 | 0.962 | 0.865 | 0.805 | 0.441 | 0.358 | 0.36 | 0.351 | 0.295 | 1.1 | 0.964 | 0.924 | 0.992 | 0.883
HOP-62 | 0.41 | 0.374 | 0.376 | 0.387 | 0.328 | 1.11 | 0.912 | 1.11 | 0.922 | 0.89 | 0.424 | 0.436 | 0.475 | 0.469 | 0.464 | 0.956 | 1.05 | 0.859 | 1 | 0.954
NCI-H2126 | 0.547 | 0.563 | 0.522 | 0.607 | 0.552 | 0.781 | 0.759 | 0.679 | 0.645 | 0.673 | 0.392 | 0.392 | 0.319 | 0.403 | 0.372 | 0.881 | 0.886 | 0.815 | 0.746 | 0.792
SW 1573 | 0.584 | 0.6 | 0.602 | 0.612 | 0.306 | 0.928 | 0.824 | 0.883 | 0.985 | 0.821 | 0.396 | 0.461 | 0.399 | 0.428 | 0.134 | 1.07 | 0.938 | 1.16 | 1.1 | 0.689
NCI-H1944 | 0.432 | 0.476 | 0.401 | 0.381 | 0.427 | 1.06 | 1.3 | 1.21 | 1.23 | 1.19 | 0.333 | 0.322 | 0.349 | 0.31 | 0.297 | 1.11 | 1.01 | 1.04 | 1.06 | 1.03
EPLC-272H | 0.296 | 0.334 | 0.282 | 0.253 | 0.245 | 1.44 | 1.02 | 1.13 | 1.32 | 1.15 | 0.337 | 0.348 | 0.315 | 0.257 | 0.249 | 1.01 | 1.09 | 1.17 | 1.04 | 0.93
PC-3 [JPC-3] | 0.656 | 0.738 | 0.62 | 0.601 | 0.529 | 0.962 | 0.941 | 0.924 | 0.948 | 0.947 | 0.56 | 0.56 | 0.552 | 0.513 | 0.512 | 0.826 | 0.767 | 0.848 | 0.786 | 0.827
